According to patent US11147272B2, “Pyridone compounds and agricultural and horticultural fungicides comprising the same as active ingredients” (MITSUI CHEMICALS AGRO, INC., priority 2017, dated 2021):

Tests used:
[1] = test system: Blumeria graminis f. sp. hordei; test: Test Example D: Powdery mildew on barley; details: for Test D control value class: class of control value
[2] = test system: Alternaia brassicicola; test: Test Example C: Alternaria sooty spot on cabbage; assay type: in vivo
Source text: Seeds of a test plant (cabbage variety: Shikidori) were planted and cultivated until the cotyledons extended.
<Control Value> Control value=100{1−(n/3)}

[3] = test system: Plasmopara viticola; test: Test Example G: Downy mildew on vine; details: for Test G control value class: Downy mildew on vine (Neomuscat), 2.5 ml/pot, assessed 7 to 10 days after inoculation; for Test G control value: 7 to 10 days after inoculation
[4] = test system: Puccinia recondita; test: Test Example E: Brown rust on wheat; assay type: in vivo
[5] = test system: Botrytis cinerea; test: Test Example B: Gray mold on tomato; details: for Test B control value class: class of control value
[6] = test system: Phytophthora infestans; test: whole plant or invertebrate; assay type: in vivo; details: for Test F control value class: class of control value
[7] = test system: Colletotrichum orbiculare; test: Test Example H: Anthracnose on cucumber; details: for Test H control value class: Anthracnose on cucumber (Sagami Hanjiro), 2.5 ml/pot, assessed 6 to 10 days after inoculation; for Test H control value: 6 to 10 days after inoculation
[8] = test system: Magnaporthe grisea; test: whole plant or invertebrate; assay type: in vivo; details: for Test A control value class: class of control value
[9] = Alternaria sooty spot on cabbage, class of control value
[10] = Brown rust on wheat, class of control value
[11] = 250 ppm drug solution sprayed on test plant
[12] = 250 ppm drug solution sprayed (2.5 ml/pot), grape Neomuscat
[13] = 250 ppm drug solution sprayed (2.5 ml/pot), cucumber Sagami Hanjiro
[14] = Powdery mildew on barley, control value class
[15] = Alternaria sooty spot on cabbage, control value class
[16] = Downy mildew on vine, 250 ppm spray
[17] = Brown rust on wheat, control value class
[18] = Gray mold on tomato, control value class
[19] = Late blight on tomato, control value class
[20] = Anthracnose on cucumber, 250 ppm spray
[21] = Blast on rice, control value class

Row | Structure (SMILES) | Test D control value class ([1]; Powdery mildew on barley) | Test C control value class [2, 9] | Test G control value class ([3]; 250 ppm spray) | Test E control value class [4, 10] | Test B control value class ([5]; Gray mold on tomato) | Test F control value class ([6]; Late blight on tomato) | Test H control value class ([7]; 250 ppm spray) | Test A control value class ([8]; Blast on rice) | further results
1 | CCOC(C)c1cc(Cl)c(=O)n(CC)c1-c1c(F)cccc1F (stereo not drawn) [compound 19] | H (more than 50% control value) | H (more than 50% control value) | H (more than 50% control value) | H (more than 50% control value) | H (more than 50% control value) | L (50% or less control value) | H (more than 50% control value) | H (more than 50% control value) | –
2 | CC(C)Cc1cc(Cl)c(=O)n(C)c1-c1ccc(Cl)cc1Cl [compound 137] | H (more than 50% control value) | H (more than 50% control value) | H (more than 50% control value) | H (more than 50% control value) | H (more than 50% control value) | L (50% or less control value) | H (more than 50% control value) | H (more than 50% control value) | –
3 | CCC(=O)c1cc(Cl)c(=O)n(CC)c1-c1c(F)cc(OC)cc1F [compound 51] | H (more than 50% control value) | H (more than 50% control value) | L (50% or less control value) | H (more than 50% control value) | H (more than 50% control value) | L (50% or less control value) | H (more than 50% control value) | H (more than 50% control value) | –
4 | CCn1c(-c2c(F)cc(OC)cc2F)c(C(OC)C(C)(C)C)cc(Cl)c1=O (racemic) [compound 170] | H (more than 50% control value) | H (more than 50% control value) | H (more than 50% control value) | H (more than 50% control value) | H (more than 50% control value) | H (more than 50% control value) | H (more than 50% control value) | H (more than 50% control value) | –
5 | COc1cc(F)c(-c2c(C(C)C)cc(Cl)c(=O)n2C)c(F)c1 [compound 16] | H (more than 50% control value) | H (more than 50% control value) | H (more than 50% control value) | H (more than 50% control value) | H (more than 50% control value) | L (50% or less control value) | H (more than 50% control value) | H (more than 50% control value) | –
6 | CCCc1cc(Cl)c(=O)n(CCC)c1-c1c(F)cc(F)cc1F [compound 439] | – | – | – | – | – | – | – | – | Test D control value [1, 11]: L (50% or less control value); Test C control value [2, 11]: L (50% or less control value); Test G control value [3, 12]: L (50% or less control value); Test E control value [4, 11]: L (50% or less control value); Test B control value [5, 11]: L (50% or less control value); Test F control value [6, 11]: L (50% or less control value); Test H control value [7, 13]: H (more than 50% control value); Test A control value [8, 11]: H (more than 50% control value)
7 | CCCCCCC1=C(c2ccc(F)cc2Cl)N(CC)C(=O)CC1 [compound 282] | – | – | – | – | – | – | – | – | Test D control value [1, 14]: H (more than 50% control value); Test C control value [2, 15]: L (50% or less control value); Test G control value [3, 16]: L (50% or less control value); Test E control value [4, 17]: L (50% or less control value); Test B control value [5, 18]: L (50% or less control value); Test F control value [6, 19]: L (50% or less control value); Test H control value [7, 20]: L (50% or less control value); Test A control value [8, 21]: L (50% or less control value)
8 | CCn1c(-c2c(F)cccc2F)c(C(O)C(C)C)cc(Br)c1=O (stereo not drawn) [compound 520] | – | – | – | – | – | – | – | – | Test D control value [1, 11]: H (more than 50% control value); Test C control value [2, 11]: H (more than 50% control value); Test G control value [3, 12]: H (more than 50% control value); Test E control value [4, 11]: H (more than 50% control value); Test B control value [5, 11]: H (more than 50% control value); Test F control value [6, 11]: L (50% or less control value); Test H control value [7, 13]: H (more than 50% control value); Test A control value [8, 11]: H (more than 50% control value)
9 | CCn1c(-c2ccc(F)cc2Cl)c(C=O)cc(Cl)c1=O [compound 294] | – | – | – | – | – | – | – | – | Test D control value [1, 14]: L (50% or less control value); Test C control value [2, 15]: H (more than 50% control value); Test G control value [3, 16]: H (more than 50% control value); Test E control value [4, 17]: H (more than 50% control value); Test B control value [5, 18]: H (more than 50% control value); Test F control value [6, 19]: L (50% or less control value); Test H control value [7, 20]: L (50% or less control value); Test A control value [8, 21]: L (50% or less control value)
10 | CCn1c(-c2c(F)cc(F)cc2F)c(C(OC)C(C)C)cc(Cl)c1=O (stereo not drawn) [compound 65] | H (more than 50% control value) | H (more than 50% control value) | L (50% or less control value) | H (more than 50% control value) | H (more than 50% control value) | L (50% or less control value) | H (more than 50% control value) | H (more than 50% control value) | –
11 | CCn1c(-c2ccc(OCC3CC3)cc2F)c(CC(C)C)cc(Cl)c1=O [compound 129] | H (more than 50% control value) | H (more than 50% control value) | H (more than 50% control value) | H (more than 50% control value) | H (more than 50% control value) | L (50% or less control value) | L (50% or less control value) | L (50% or less control value) | –
12 | CCn1c(-c2c(F)cccc2F)c(C)ccc1=O [Compound No. 1, 6-(2,6-difluorophenyl)-1-ethyl-5-methylpyridin-2(1H)-one] | – | – | – | – | – | – | – | – | pest or weed control at 250 µg/mL ([1]; Blumeria graminis, in Hordeum vulgare, topical, read-out: Test D control value class): < 50%; pest or weed control at 250 µg/mL ([2]; Brassica oleracea, topical, Alternaria sooty spot on cabbage, class of control value, read-out: Test C control value class): < 50%; pest or weed control at 250 ppm ([3]; Plasmopara viticola, topical, read-out: Test G control value class): < 50%; pest or weed control at 250 µg/mL ([4]; Puccinia recondita, topical, Brown rust on wheat, class of control value, read-out: Test E control value class): < 50%; pest or weed control at 250 µg/mL ([5]; Botrytis cinerea, in Solanum lycopersicum, topical, read-out: Test B control value class): < 50%; pest or weed control at 250 µg/mL ([6]; Phytophthora infestans, in Solanum lycopersicum, topical, read-out: Test F control value class): < 50%; pest or weed control at 250 ppm ([7]; Colletotrichum orbiculare, in Cucumis sativus, topical, read-out: Test H control value class): < 50%; pest or weed control at 250 µg/mL ([8]; Pyricularia oryzae, in Oryza sativa, read-out: Test A control value class): > 50%
13 | CCn1c(-c2c(F)cc(OC)cc2F)c(CNOC)cc(Cl)c1=O [compound 114] | H (more than 50% control value) | H (more than 50% control value) | L (50% or less control value) | H (more than 50% control value) | H (more than 50% control value) | L (50% or less control value) | H (more than 50% control value) | L (50% or less control value) | –
14 | CCCc1ccc(=O)n(CC(F)F)c1-c1c(F)cc(F)cc1F [compound 470] | – | – | – | – | – | – | – | – | Test D control value [1, 11]: L (50% or less control value); Test C control value [2, 11]: H (more than 50% control value); Test G control value [3, 12]: L (50% or less control value); Test E control value [4, 11]: L (50% or less control value); Test B control value [5, 11]: L (50% or less control value); Test F control value [6, 11]: L (50% or less control value); Test H control value [7, 13]: H (more than 50% control value); Test A control value [8, 11]: L (50% or less control value)
15 | CCn1c(-c2ccc(OCSC)cc2F)c(CC(C)C)cc(Cl)c1=O [compound 128] | H (more than 50% control value) | H (more than 50% control value) | H (more than 50% control value) | H (more than 50% control value) | H (more than 50% control value) | L (50% or less control value) | H (more than 50% control value) | H (more than 50% control value) | –
